# System: A. thaliana seedlings
# Test: hypocotyl length assay (inhibition of hypocotyl elongation)
# Type: in vivo, A. thaliana Col-0
# Details: tZ standard at 0.14, 0.28 and 0.56 mg/L (mean of all treatments, no significant difference between them); seedlings grown in darkness, measured after 8 days
# Procedure: The bioactivity of the produced cytokinins was tested in A. thaliana by hypocotyl length assay. This assay is based on the capacity of cytokinins to inhibit hypocotyl elongation in A. thaliana seedlings (Cary et al., 1995, Plant Physiol., 107 (4): 1075-1082). Seeds of A. thaliana Col-0 were surface sterilized, sown on 0.5× Murashige and Skoog (MS) medium (Murashige and Skoog, 1962, Physiol. Plant., 15(13):473-497) (0.7% agar) without sucrose, and stratified in darkness for 3 days at 4° C. Seedlings were grown in complete darkness in a growth cabinet at 21°° C. Hypocotyl lengths were determined after 8 days of growth, and at least 15 seedlings were measured for each treatment.
structure (smiles),measurement,value
"C/C(=C\CNc1ncnc2nc[nH]c12)CO [tZ standard, trans-zeatin]",mean reduction in hypocotyl lengths,58%
